# Source: patent US20170240556A1, “BIFLUORODIOXALANE-AMINO-BENZIMIDAZOLE KINASE INHIBITORS FOR THE TREATMENT OF CANCER, AUTOIMMUNEINFLAMMATION AND CNS DISORDERS” (4SC DISCOVERY GMBH, priority 2012, published 2017)
# pIC50: −log10 of the molar value.
# Key:
# [1] = target: Casein kinase 1 delta (CSKN1D) (Homo sapiens, UniProt P48730); experiment: Casein kinase assay, CK1 delta; assay type: biochemical; details: recombinant CSKN1D 5 nM, ATP 10 μM
# [2] = test system: Hedgehog signaling pathway; experiment: Hedgehog reporter assay (Gli Reporter - NIH3T3 Cell Line); assay type: cell-based; details: Mus musculus; Gli reporter NIH3T3 cells, murine SHH stimulation, 24 h; read-out: HH Assay
# Experimental: In order to investigate the potency of test compounds to inhibit the Hedgehog signaling pathway, a Gli-Reporter assay was performed.
# The “Gli Reporter—NIH3T3 Cell Line” contains the firefly luciferase gene under the control of Gli responsive elements stably integrated into murine NIH3T3 cells (cells purchased from Amsbio). The luciferase expression correlates with activation of the hedgehog signaling pathway. This cell line is validated for its response to stimulation with murine Sonic Hedgehog and to treatment with inhibitors of the hedgehog signaling pathway. A multiplexed viability assay was used to discriminate inhibition on the pathway activity from cell toxicity.
# Growth Medium: DMEM, 10% Calf Serum, 1% Penicillin/Streptomycin 500 μg/ml Geneticin (G418 Stock 50 mg/ml).
# 25.000 cells per well were seeded into a white 96 well plate in 100 μl growth medium and incubated over night at 37° C. and 5% CO2. After removing the supernatant the test compounds and controls (known GLI inhibitor, e.g. GANT-61) were added in different concentrations in a final volume of 45 μl and incubated for 1 h at 37° C. and 5% CO2. For the stimulation of the Hedgehog pathway 5 μl of 10 μg/ml concentrated murine sonic hedgehog (SHH) was added to the cells. A final concentration of 1 μg/ml mSHH and 0.1% DMSO was reached per well. After incubation for 24 h at 37° C. the cells were investigated for viability and reporter activity.
# Viability: For the determination of the viability of the treated cells the CellTiter-Fluor Kit from Promega was used. Essentially, only proteases of viable cells are able to cleave the cell-permeant substrate Gly-Phe-AFCoumarin (GF-AFC). By this cleavage the fluorescent AFC is set free and can be detected in a fluorescence reader. For this assay 10 μl of GF-AFC substrate (CellTiter-Fluor, Promega #G6082) was diluted in 2 ml assay buffer from the CellTiter-Fluor Kit and 10 μl of this dilution was added per well to the cells and incubated for 30 min at 37° C. The fluorescence was measured with excitation at 380-400 nm and emission at 505 nm.
# Reporter activity: The firefly luciferase reporter activity was detected with the ONE-Glo™ Luciferase Assay System from Promega. For this assay 50 μl ONE-Glo luciferase reagent (Promega #E6120, contains cell lysis buffer and luciferin) was added to each well and incubated at room temperature for 5 min. Luminescence was detected in a plate reader and served as a degree for reporter activity.
# [3] = target: Casein kinase 1 epsilon (CSKN1E) (Homo sapiens, UniProt P49674); experiment: Casein kinase assay, CK1 epsilon; assay type: biochemical; details: recombinant CSKN1E 30 nM, ATP 10 μM
# Chain of Casein kinase 1 epsilon (CSKN1E) (P49674 whole entry): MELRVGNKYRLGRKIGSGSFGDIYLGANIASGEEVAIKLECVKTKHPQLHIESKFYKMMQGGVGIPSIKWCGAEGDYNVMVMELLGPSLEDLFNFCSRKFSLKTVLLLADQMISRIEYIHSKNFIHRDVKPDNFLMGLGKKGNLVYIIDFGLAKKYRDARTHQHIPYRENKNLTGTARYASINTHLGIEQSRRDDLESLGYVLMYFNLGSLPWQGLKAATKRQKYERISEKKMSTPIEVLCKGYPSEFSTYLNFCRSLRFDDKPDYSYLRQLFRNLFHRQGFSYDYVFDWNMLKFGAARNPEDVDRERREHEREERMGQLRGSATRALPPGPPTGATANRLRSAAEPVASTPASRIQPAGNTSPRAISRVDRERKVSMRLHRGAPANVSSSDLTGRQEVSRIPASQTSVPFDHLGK
# Chain of Casein kinase 1 delta (CSKN1D) (P48730 whole entry): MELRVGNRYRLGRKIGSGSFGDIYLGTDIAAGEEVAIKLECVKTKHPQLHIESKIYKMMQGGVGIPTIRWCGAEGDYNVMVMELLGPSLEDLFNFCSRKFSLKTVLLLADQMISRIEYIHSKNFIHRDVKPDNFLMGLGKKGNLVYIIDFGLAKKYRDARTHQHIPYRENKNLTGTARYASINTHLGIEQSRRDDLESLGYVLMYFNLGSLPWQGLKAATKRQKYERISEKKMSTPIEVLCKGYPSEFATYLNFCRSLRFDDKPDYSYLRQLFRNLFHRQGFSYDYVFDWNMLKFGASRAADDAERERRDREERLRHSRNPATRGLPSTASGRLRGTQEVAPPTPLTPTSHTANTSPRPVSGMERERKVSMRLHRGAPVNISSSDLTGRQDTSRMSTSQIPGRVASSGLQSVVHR
Compound,pIC50 [1],pIC50 [2],pIC50 [3]
"Nc1nccnc1C(=O)Nc1nc2cc3c(cc2[nH]1)OC(F)(F)O3 [Compound 7, 3-amino-N-(2,2-difluoro-5H-[1,3]dioxolo[4′,5′:4,5]benzo[1,2-d]imidazol-6-yl)pyrazine-2-carboxamide]",< 6.00,4.82 to 6.00,< 6.00
"O=C(Nc1nc2cc3c(cc2[nH]1)OC(F)(F)O3)c1cnccn1 [Compound 27, N-(2,2-difluoro-5H-[1,3]dioxolo[4′,5′:4,5]benzo[1,2-d]imidazol-6-yl)pyrazine-2-carboxamide]",< 6.00,4.82 to 6.00,< 6.00
"O=C(Nc1nc2cc3c(cc2[nH]1)OC(F)(F)O3)c1cccc(N2CCCC2)c1 [Compound 122, N-(2,2-difluoro-5H-[1,3]dioxolo[4′,5′:4,5]benzo[1,2-d]imidazol-6-yl)-3-(pyrrolidin-1-yl)benzamide]",> 6.70,≥ 6.30,–
"CN(C)c1cc(C(=O)Nc2nc3cc4c(cc3[nH]2)OC(F)(F)O4)ccn1 [Compound 125, N-(2,2-difluoro-5H-[1,3]dioxolo[4′,5′:4,5]benzo[1,2-d]imidazol-6-yl)-2-(dimethylamino)isonicotinamide]",> 6.70,4.82 to 6.00,–
"Cc1cc(C)n(-c2cccc(C(=O)Nc3nc4cc5c(cc4[nH]3)OC(F)(F)O5)c2)n1 [Compound 130, N-(2,2-difluoro-5H-[1,3]dioxolo[4′,5′:4,5]benzo[1,2-d]imidazol-6-yl)-3-(3,5-dimethyl-1H-pyrazol-1-yl)benzamide]",> 6.70,≥ 6.30,> 6.70
"O=C(Nc1nc2cc3c(cc2[nH]1)OC(F)(F)O3)c1cc(-c2cccs2)on1 [Compound 138, N-(2,2-difluoro-5H-[1,3]dioxolo[4′,5′:4,5]benzo[1,2-d]imidazol-6-yl)-5-(thiophen-2-yl)isoxazole-3-carboxamide]",> 6.70,6.00 to 6.30,> 6.70
"O=C(Nc1nc2cc3c(cc2[nH]1)OC(F)(F)O3)c1cccc(-c2noc(C3CC3)n2)c1 [Compound 147, 3-(5-cyclopropyl-1,2,4-oxadiazol-3-yl)-N-(2,2-difluoro-5H-[1,3]dioxolo[4′,5′:4,5]benzo[1,2-d]imidazol-6-yl)-benzamide]",> 6.70,6.00 to 6.30,> 6.70

# Further lines, results first:
pIC50 [1],pIC50 [2],pIC50 [3],Compound
> 6.70,≥ 6.30,6.00 to 6.70,"O=C(Nc1nc2cc3c(cc2[nH]1)OC(F)(F)O3)c1csc(-c2ccc3c(c2)CCO3)n1 [Compound 3, N-(2,2-difluoro-5H-[1,3]dioxolo[4′,5′:4,5]benzo[1,2-d]imidazol-6-yl)-2-(2,3-dihydrobenzofuran-5-yl)thiazole-4-carboxamide]"
> 6.70,6.00 to 6.30,> 6.70,"COc1cccc(CC(=O)Nc2nc3cc4c(cc3[nH]2)OC(F)(F)O4)c1 [Compound 3B, N-(2,2-difluoro-5H-[1,3]dioxolo[4′,5′:4,5]benzo[1,2-d]imidazol-6-yl)-2-(3-methoxyphenyl)acetamide]"
> 6.70,4.82 to 6.00,–,"O=C(Nc1nc2cc3c(cc2[nH]1)OC(F)(F)O3)c1cccc(-c2cc[nH]n2)c1 [Compound 5B, N-(2,2-difluoro-5H-[1,3]dioxolo[4′,5′:4,5]benzo[1,2-d]imidazol-6-yl)-3-(1H-pyrazol-3-yl)benzamide]"
> 6.70,6.00 to 6.30,> 6.70,"O=C(Nc1nc2cc3c(cc2[nH]1)OC(F)(F)O3)c1csc(-c2ccco2)n1 [Compound 6B, N-(2,2-difluoro-5H-[1,3]dioxolo[4′,5′:4,5]benzo[1,2-d]imidazol-6-yl)-2-(furan-2-yl)thiazole-4-carboxamide]"
> 6.70,4.82 to 6.00,–,"CN(C)c1cncc(C(=O)Nc2nc3cc4c(cc3[nH]2)OC(F)(F)O4)c1 [Compound 7B, N-(2,2-difluoro-5H-[1,3]dioxolo[4′,5′:4,5]benzo[1,2-d]imidazol-6-yl)-5-(dimethylamino)nicotinamide]"
> 6.70,4.82 to 6.00,–,"O=C(Nc1nc2cc3c(cc2[nH]1)OC(F)(F)O3)c1csc(-c2cccs2)n1 [Compound 11B, N-(2,2-difluoro-5H-[1,3]dioxolo[4′,5′:4,5]benzo[1,2-d]imidazol-6-yl)-2-(thiophen-2-yl)thiazole-4-carboxamide]"
> 6.70,4.82 to 6.00,–,"O=C(Nc1nc2cc3c(cc2[nH]1)OC(F)(F)O3)c1csc(-c2ccoc2)n1 [Compound 16B, N-(2,2-difluoro-5H-[1,3]dioxolo[4′,5′:4,5]benzo[1,2-d]imidazol-6-yl)-2-(furan-3-yl)thiazole-4-carboxamide]"
> 6.70,6.00 to 6.30,–,"CN(C)c1cccc(C(=O)Nc2nc3cc4c(cc3[nH]2)OC(F)(F)O4)c1 [Compound 102, N-(2,2-difluoro-5H-[1,3]dioxolo[4′,5′:4,5]benzo[1,2-d]imidazol-6-yl)-3-(dimethylamino)benzamide]"
